Laboratory results taken from patent US6096529A, “Recombinant α-2,3-sialyltransferases and their uses” (priority 1997, dated 2000).

Columns and labels:
Type in all cases: biochemical
[1] = molecular target: T1, purified recombinant α-2,3-sialyltransferase (Neisseria meningitidis serogroup B, UniProt P72097); assay: Enzymatic properties of the purified recombinant α-2,3-sialyltransferase (standard assay); conditions: for inhibition at 1000 µM: 1 mM, standard assay; for activity stimulated by presence: 20 mM
T1 construct: made in house; host or cells: E. coli BMH71-18/pNST-18
Method: (§1) Measurement of Sialyltransferase Activity and Survey of Oligosaccharide Acceptors--FCHASE-labelled oligosaccharides were prepared as described above, while the APTS-labelled oligosaccharides were prepared by reductive amination of reducing saccharides according to the method described by Guttman et at. (Anal. Biochem233:234 (1996)) The Gal-β-APTS acceptor was derived from labelling of lactose; the Gal-α-APTS acceptor was derived from labelling of melibiose; the N-acetyllactosamine (LacNAc) acceptor was synthesized by APTS labelling of chitobiose, followed by enzymatic modification with bovine β-Galactosyl transferase to produce the LacNAc moiety-, the Gal-α-1.4-Gal-β acceptor was enzymatically synthesized from β-Gal-APTS with the α-1,4-galactosyltransferase from N. meningitidis. All of the reductive amination products were purified by gel permeation chromatography on Toyopearl HW4OF (Sigma-Aldrich), 1.5 cm×15 cm column, using water as the eluant. It should be mentioned that all of these molecules have the terminal reducing sugar ring opened in the process of labelling. APTS-saccharides were quantitated by measuring the A455, and using an extinction coefficient of 17160 M^-1 cm^-1 . The TMR-labelled oligosaccharides were prepared as described by Zhao et al. (1994) Glycobiology 4:239-242. For the TMR labelled acceptors we used an extinction coefficient of 80,000 M^-1 cm^-1 for quantitation. The sialyltransferase activity was routinely measured using 0.5 mM FCHASE-N-acetyllactosamine as the acceptor and the assay conditions as described above. For measurement of Km, and kcat values, assays were performed with the APTS labelled saccharides at room temperature. Assays were monitored so that for all acceptor concentrations, no more than 10% conversion to product occurred. The ranges of acceptor and donor concentrations were determined empirically, then a range spanning 0.2Km, up to 5Km, was used to obtain the values. Data were examined using the Grafit™3.0 software package (Erithacus Software, London, UK).
(§2) The reaction mixtures from the FCHASE- and APTS-labelled acceptors were analyzed by capillary electrophoresis performed with a Beckman instruments (Fullerton, Calif.) P/ACE 5510 equipped with a 3 mW Argon-ion laser induced fluorescence detector, λ excitation=488 nm λ emission=520 nm. The Capillary was of bare silica 75 μ X 57 cm, with the detector at 50 cm. The capillary was conditioned before each run by washing with 0.2 M NaOH for 2 min., water for 2 min., and either 20 mM sodium phosphate buffer, pH 7.4 or sodium tetraborate, pH 9.3, 2 min. Samples were introduced by pressure injection for 2-5 seconds, and the separation was performed at 18 kV, 75 μA. Peak integration was performed with the Beckman PACE-Station software (version 1).

[2] = molecular target: T1, purified recombinant α-2,3-sialyltransferase; assay: Determination of kinetic constants with APTS-labelled acceptors; conditions: for kcat IKm: apparent, APTS-labelled acceptor, CMP-Neu5Ac 200 μM
Method: as §1, §2

[3] = molecular target: T2, N. meningitidis α-2,3-sialyltransferase (Neisseria meningitidis serogroup B, UniProt P72097); design: b112 rows possibly recombinant MC58 lst (pNST-01) in E. coli extracts; conditions: for ratios of activity as acceptor: synthetic saccharide acceptors, relative to FCHASE-aminophenyl-LacNAc; for activity stimulated by addition: 10 mM, enzyme from N. meningitidis extracts
Method: Measurement of Sialyltransfrase Activity--The sialyltransferase activity from N. meningitidis MC58L3, 406Y L3 and M982B L7, and the E. coli carrying pNST plasmids was measured in toluene treated cells or cell free extracts prepared as described previously (Wakarchuk, et al. (1996) J. Biol. Chem. in Press) acceptors were derived from aminophenylglycosides reacted with 6(5-fluorescein-carboxamnido)-hexanoic acid succimidyl ester (FCHASE) and were prepared as previously described (Wakarchuk, et al. (1996) J. Biol. Chem. in Press). Reactions for the enzyme were performed at 37° C. in 20 μl of MES buffer, 50 mM pH 6.0, 10 mM MnCl2, with 0.2 or 1.0 mM labeled acceptor, 0.2 mM CMP-Neu5Ac donor and various amounts of enzyme, either from crude bacterial extracts, or extracts of recombinant E. coli with the cloned gene. The recombinant enzymes were assayed for 10-120 minutes, while extracts from N. meningitidis were incubated 1-15 h. The reactions were terminated by diluting the reaction 1:100 with 10 mM NaOH. These samples were then diluted appropriately in water prior to analysis by capillary electrophoresis.
Capillary electrophoresis (CE) and was performed with a Beckman (Fullerton, Calif.) P/ACE 5510 equipped with a 3 mW Argon-ion laser induced fluorescence detector, λ excitation=488 nm, λ emission=520 nm. The capillary was bare silica 75 μ X 47 cm, with the detector at 40 cm. The capillary was conditioned before each run by washing with 0.2 M NaOH for 2 min., water for 2 min., and 25 mM sodium tetraborate pH 9.4 for 2 min. Samples were introduced by pressure injection for 2-5 seconds, and the separation was performed at 15 kV, 75 μA. Peak integration was performed with the Beckman System Gold (version 8.1) software.
Target sequence in this assay (P72097 whole entry Q29H/E40D/N94K/T242A/K273N): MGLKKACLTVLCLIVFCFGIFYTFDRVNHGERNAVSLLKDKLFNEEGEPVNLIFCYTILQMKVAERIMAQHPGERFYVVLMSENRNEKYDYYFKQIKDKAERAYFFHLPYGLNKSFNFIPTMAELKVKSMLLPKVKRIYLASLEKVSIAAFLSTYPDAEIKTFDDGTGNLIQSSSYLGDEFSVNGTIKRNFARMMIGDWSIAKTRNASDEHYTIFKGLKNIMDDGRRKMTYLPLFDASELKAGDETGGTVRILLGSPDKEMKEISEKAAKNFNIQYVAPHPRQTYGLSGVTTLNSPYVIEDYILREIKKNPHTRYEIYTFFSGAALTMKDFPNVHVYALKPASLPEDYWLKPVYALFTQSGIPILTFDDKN

[4] = molecular target: T1, purified recombinant α-2,3-sialyltransferase; assay: Survey of oligosaccharide acceptors (qualitative, CE or TLC)
Method: Measurement of Sialyltransferase Activity and Survey of Oligosaccharide Acceptors--FCHASE-labelled oligosaccharides were prepared as described above, while the APTS-labelled oligosaccharides were prepared by reductive amination of reducing saccharides according to the method described by Guttman et at. […] APTS-saccharides were quantitated by measuring the A455, and using an extinction coefficient of 17160 M^-1 cm^-1 . […] For the TMR labelled acceptors we used an extinction coefficient of 80,000 M^-1 cm^-1 for quantitation. The sialyltransferase activity was routinely measured using 0.5 mM FCHASE-N-acetyllactosamine as the acceptor and the assay conditions as described above. […] Assays were monitored so that for all acceptor concentrations, no more than 10% conversion to product occurred. The ranges of acceptor and donor concentrations were determined empirically, then a range spanning 0.2Km, up to 5Km, was used to obtain the values. […]
The reaction mixtures from the FCHASE- and APTS-labelled acceptors were analyzed by capillary electrophoresis performed with a Beckman instruments (Fullerton, Calif.) P/ACE 5510 equipped with a 3 mW Argon-ion laser induced fluorescence detector, λ excitation=488 nm λ emission=520 nm. […]

[5] = molecular target: T2, N. meningitidis α-2,3-sialyltransferase; assay: Coupled sialylation of FCHASE-LacNAc with Neu5Ac, Neu5Pr or Neu5Gc and CMP-Neu5Ac synthetase; design: made in house; host or cells: E. coli BMH71-18/pNST-18; conditions: for time to complete conversion of the acceptor (FCHASE-LacNAc): coupled reaction with CMP-Neu5Ac synthetase; for use as alternate donor, rate: compared with Neu5Ac
Method: Sialylation of FCHASE-thio-N-acetyllactosamine with N-acetyl-, N-propionyl and N-glycolyl-Neuraminic Acid--The 50 μL reaction mixtures included […] acceptor, and 2 mM of either Neu5Ac, Neu5Gc or Neu5Pr, in 100 mM Tris pH 7.5. 0.2 mM DTT, 10 mM MgCl2, […], with 50 mU inorganic pyrophosphatase (Sigma). 47 mU CMP-Neu5Ac synthetase, 5 mU purified α-2,3-sialyl-transferase. […] The masses of the sialylated products were measured in the negative ion mode on a VG Quattro triple quadrupole mass spectrometer (Fisons Instruments).
Target sequence in this assay (P72097 2-371): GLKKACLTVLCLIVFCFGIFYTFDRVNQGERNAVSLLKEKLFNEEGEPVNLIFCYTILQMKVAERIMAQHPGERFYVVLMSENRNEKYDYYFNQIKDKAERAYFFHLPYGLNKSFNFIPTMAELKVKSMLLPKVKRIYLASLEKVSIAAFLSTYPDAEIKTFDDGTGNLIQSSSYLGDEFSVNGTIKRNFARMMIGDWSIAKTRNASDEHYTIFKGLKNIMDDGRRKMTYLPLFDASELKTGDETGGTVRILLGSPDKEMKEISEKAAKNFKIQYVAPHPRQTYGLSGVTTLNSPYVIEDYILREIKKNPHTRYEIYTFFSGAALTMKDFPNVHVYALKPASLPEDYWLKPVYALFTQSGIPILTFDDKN

T1 sequence (P72097 2-371): as above

O[C@H](CS)[C@H](O)CS (racemic) [DTT, dithiothreitol]
effect on the activity ([1]; 1-20 mM range): no effect

Nc1ccn([C@@H]2O[C@H](COP(=O)(O)OP(=O)(O)O)[C@@H](O)[C@H]2O)c(=O)n1 [CDP]
inhibition at 1000 µM [1]: 40%

CC(=O)N[C@H]1[C@H]([C@H](O)[C@H](O)CO)O[C@](OP(=O)(O)OC[C@H]2O[C@@H](n3ccc(N)nc3=O)[C@H](O)[C@@H]2O)(C(=O)O)C[C@@H]1O [CMP-Neu5Ac]
substrate inhibition ([2]; as high as 1 mM CMP-Neu5Ac): No significant substrate inhibition

Nc1ccn([C@@H]2O[C@H](COP(=O)(O)O)[C@@H](O)[C@H]2O)c(=O)n1 [CMP]
inhibition at 1000 µM [1]: 80%

O=C(O)CN(CCN(CC(=O)O)CC(=O)O)CC(=O)O [EDTA]
activity in the presence of EDTA ([3]; 5 mM EDTA): active
activity in the presence of EDTA ([1]; 5 mM EDTA, purified enzyme): still active

O=C(CCCCCNC(=O)c1ccc(-c2c3ccc(=O)cc-3oc3cc(O)ccc23)c(C(=O)O)c1)Nc1ccc(OC2O[C@H](CO)[C@H](O)[C@H](O)[C@H]2O)cc1 (some centres unmarked) [FCHASE-aminophenyl-Gal]
ratios of activity as acceptor [3]: 0.03

CC(=O)N[C@H]1[C@H](Oc2ccc(NC(=O)CCCCCNC(=O)c3ccc(-c4c5ccc(=O)cc-5oc5cc(O)ccc45)c(C(=O)O)c3)cc2)O[C@H](CO)[C@@H](O[C@@H]2O[C@H](CO)[C@H](O)[C@H](O)[C@H]2O)[C@@H]1O [FCHASE-aminophenyl-LacNAc]
ratios of activity as acceptor [3]: 1

O=C(CCCCCNC(=O)c1ccc(-c2c3ccc(=O)cc-3oc3cc(O)ccc23)c(C(=O)O)c1)Nc1ccc(O[C@@H]2O[C@H](CO)[C@@H](O[C@@H]3O[C@H](CO)[C@H](O)[C@H](O)[C@H]3O)[C@H](O)[C@H]2O)cc1 [FCHASE-aminophenyl-Lac]
ratios of activity as acceptor [3]: 0.29

O=S(=O)(O)c1cc(NC[C@H](O)[C@@H](O)[C@H](O)[C@H](O)CO[C@H]2O[C@H](CO)[C@H](O)[C@H](O)[C@H]2O)c2ccc3c(S(=O)(=O)O)cc(S(=O)(=O)O)c4ccc1c2c34 [Gal-α-(1→6)-Gal, Gal-α-(1→6)-Gal*]
kcat IKm [2]: 31 min⁻¹ mM⁻¹

O=C(CCCCCNC(=O)c1ccc(-c2c3ccc(=O)cc-3oc3cc(O)ccc23)c(C(=O)O)c1)NCCCCCCS[C@@H]1O[C@H](CO)[C@H](O)[C@H](O)[C@H]1O [Gal-β S AH-FCHASE]
product formation with sulfur as the linkage atom [4]: product formation

O=S(=O)(O)c1cc(NC[C@H](O)[C@@H](O)[C@H](O[C@@H]2O[C@H](CO)[C@H](O)[C@H](O)[C@H]2O)[C@H](O)CO)c2ccc3c(S(=O)(=O)O)cc(S(=O)(=O)O)c4ccc1c2c34 [Gal-β-(1→4)-Glc, Gal-β-(1→4)-Glc*]
kcat IKm [2]: 22 min⁻¹ mM⁻¹

CC(=O)N[C@@H]1[C@@H](O)[C@H](O[C@@H]2O[C@H](CO)[C@H](O)[C@H](O)[C@H]2O)[C@@H](CO)O[C@H]1SCCCCCCNC(=O)CCCCCNC(=O)c1ccc(-c2c3ccc(=O)cc-3oc3cc(O)ccc23)c(C(=O)O)c1 [Gal-β-(1→4)-GlcNAc-β S AH-FCHASE]
product formation with sulfur as the linkage atom [4]: product formation

CC(=O)N[C@H]1[C@H](O[C@@H]([C@H](O)[C@H](CNc2cc(S(=O)(=O)O)c3ccc4c(S(=O)(=O)O)cc(S(=O)(=O)O)c5ccc2c3c54)NC(C)=O)[C@H](O)CO)O[C@H](CO)[C@@H](O[C@@H]2O[C@H](CO)[C@H](O)[C@H](O)[C@H]2O)[C@@H]1O [LacNAc, Gal-β-(1→4)-β-GlcNAc-β-GlcNAc*]
kcat IKm [2]: 105 min⁻¹ mM⁻¹
increase of apparent Kcat/Km ([2]; relative to the terminal Gal-β monosaccharide acceptor): 5 fold

[Cl-].[Cl-].[Mg+2] [MgCl2]
activity stimulated by addition [3]: 2 fold
activity stimulated by presence ([1]; purified enzyme): 3 fold

[Cl][Mn][Cl] [MnCl2]
activity stimulated by addition [3]: 3 fold
activity stimulated by presence ([1]; purified enzyme): 4 fold

CC(=O)N[C@H]1[C@H]([C@H](O)[C@H](O)CO)OC(O)(C(=O)O)C[C@@H]1O (some centres unmarked) [Neu5Ac, 5-N-acetylneuraminic acid]
time to complete conversion of the acceptor (FCHASE-LacNAc) [5]: 60 min

O=C(CO)N[C@H]1[C@H]([C@H](O)[C@H](O)CO)OC(O)(C(=O)O)C[C@@H]1O (some centres unmarked) [Neu5Gc, 5-N-glcolylneuraminic acid]
conversion of the acceptor ([5]; after 120 min of incubation): above 90%
use as alternate donor, rate [5]: rates lower than with Neu5Ac

CCC(=O)N[C@H]1[C@H]([C@H](O)[C@H](O)CO)OC(O)(C(=O)O)C[C@@H]1O (some centres unmarked) [Neu5Pr, N-propionyl-Neuraminic Acid]
use as alternate donor, rate [5]: rates lower than with Neu5Ac
time to complete conversion of the acceptor (FCHASE-LacNAc) [5]: 90 min

O=S(=O)(O)c1cc(NC[C@H](O)[C@@H](O)[C@H](O[C@@H]2O[C@H](CO)[C@H](O[C@H]3O[C@H](CO)[C@H](O)[C@H](O)[C@H]3O)[C@H](O)[C@H]2O)[C@H](O)CO)c2ccc3c(S(=O)(=O)O)cc(S(=O)(=O)O)c4ccc1c2c34 [P^k, Gal-α-(1→4)-Gal-(1→4)-β-Glc*]
kcat IKm [2]: 5.6 min⁻¹ mM⁻¹

Triton X-100
effect of detergents on the enzyme ([3]; Triton X-100 up to 0.2%): exception
